Series [1] has as its system SARS-CoV-2. The series is classed as cell-based.
For series [2], the system named is SARS-CoV-2 (Isolate USA-WA1/2020). In kind it is cell-based. The note with it: 24 h pre-treatment, compared to DMSO treated infected control.
For series [3] the following is noted: cited from earlier work.
Series [4] has as its system SARS-CoV-2. In kind it is cell-based. As to conditions: post-treatment, added after 1 hour infection, compared to DMSO treated infected control, Figure 3.
Series [5] has as its system SARS-CoV-2. The note with it: for patients converted to negative SARS-CoV-2 test (of the 10 patients enrolled): 500 mg twice daily.
Series [6] concerns SARS-CoV-2 (Isolate USA-WA1/2020). The experiment in a line: Prophylactic and therapeutic treatment of SARS-CoV-2 infected hamsters; lung viral titer (TCID50 and plaque assay).
Setting [7] is: prophylactic and therapeutic conditions, both cell types (NHBE and Vero).

Where two headings read alike, the source gives them in different places.

As for `CCCN(CCC)S(=O)(=O)c1ccc(C(=O)O)cc1` [probenecid, 4-[(dipropylamino)sulfony1] benzoic acid], in series [1] (setting [7]), the “IC50s compared with remdesivir” value was “lower”. The “IC90s compared with remdesivir” value in series [1] (setting [7]) is listed as “lower”. For the same compound, in series [1] (treated prophylactically or therapeutically, compared to controls), the virus plaque formation result is reported as “dose-dependent decrease”. In addition, the “reduction in plaque formation” value in series [2] (0.0001µM, another experiment, 6 well plate, Figure 2) is 50%; in series [2] (0.1µM, Vero E6, MOI 0.01, 4 days, Figure 1), 72%; in series [2] (5µM, Vero E6, MOI 0.01, 4 days, Figure 1) it was ~ 89%; in series [2] (5µM, another experiment, 6 well plate, Figure 2), ~ 93%; in series [4] (0.0001µM), 40%; in series [4] (5µM) it was ~ 90%. Also, the lipid solubility entry in series [3] is recorded as “highly lipid soluble”. In addition, the results for the “patients converted to negative SARS-CoV-2 test (of the 10 patients enrolled)” value in series [5] (Day 4 of treatment), in series [5] (Day 9 of treatment) and in series [5] (Day 14 of treatment) were 2, “four” and “nine”, respectively. In addition, in series [5] (compared to literature pooled median of 17.2 days, all but one patient (Patient 003)), the “viral shedding of SARS-CoV-2” value is reported as less than 17.2 days. For the same compound, the patient symptoms result in series [5] (no scored grading system used, shortness of breath and loss of taste or smell persisted) is “showed improvement”. Also, the “coagulation and inflammatory markers” value in series [5] (with the exception of one patient (Patient 001)) is recorded as “mostly maintained within normal ranges”. Further, the “effectiveness of the two doses compared” value in series [6] (2 mg and 200 mg treatment, single dose) is “similarly effective”. The compound also returned a lung virus titers in series [6] (day 3 post-infection, all probenecid-treated hamsters (2 or 200 mg/kg, prophylactic or therapeutic, single dose), PBS-treated 1E9+) of 1E5. For the same compound, the lung virus entry in series [6] (day 7 post infection) was “no detectable lung virus”. Moreover, the “prophylactic compared with therapeutic treatment” value in series [6] (hamster, in vivo) is “worked similarly”. The “decrease of lung virus titers” value in series [6] (hamsters, compared to PBS-treated) is listed as “several logs”.

(Values after patent publication EP4132503B1, “PROBENECID FOR USE IN THE TREATMENT OF SARS-CO-V2 INFECTIONS” (priority 2020, dated 2021).)
